{
  "source": "paper PMC9130233",
  "about": "“An inhibitor of RORγ for chronic pulmonary obstructive disease treatment” (Scientific Reports, 2022)",
  "key": {"Ca Channel (L type)": {"system": "Ca Channel (L type)", "assay": "Cerep panel, Ca channel (L type)", "excerpt": "(§1) Based on the homology of the ligand binding domains, 3 different isoforms of ROR (hRORα, hRORβ and hRORγ) are reported. Small variations in the LBD regions possibly lead to differences in competitive binding between the nuclear receptors of the ROR isoforms (Fig. 1b). Similar to the assessment of RORγ binding assay, TR-FRET binding assays were also used to assess the affinity of PCCR-1 for other ROR isoforms. […] This was reconfirmed in cellular functional assays for the selected isoforms and nuclear receptors using Gal4 DBD with luciferase reporter system from Indigo (PA, USA). […] In addition, both cellular agonist and antagonist effects as well as for enzyme activity were evaluated with a known reference compound for each target, using a radiolabeled method (Eurofins Cerep, France, Table 1)."}, "[1]": {"assay": "14-day dose-range inhalation toxicology study in Sprague Dawley rats", "type": "in vivo, rat", "method": "Rats were exposed to PCCR-1 aerosols at 3.4, 10.8 and 32.1 mg/kg/day (delivered dose) for 60 min daily for 14 days using a snout only exposure technique via a modular stainless steel flow past inhalation chamber at indicated doses as mentioned in Table 3. No treatment-related findings noted, including myeloid:erythroid (M:E) ratios in any dose levels except minimal changes in the reticulocytes and adrenal glands.\nThe 14-day dose-range inhalation toxicology study was conducted at Charles River Laboratories Edinburgh Ltd, Elphinstone Research Centre, Tranent, East Lothian, EH33 2NE, UK, under the Home Office Project License No. PPL 70/8778, Toxicology of Pharmaceuticals. The UK Home Office controls scientific procedures on animals in the UK and does so by the issue of licences under the Animals (Scientific Procedures) Act 1986. The regulations conform to EU Directive 2010/63/EU and achieve the standard of care required by the US Department of Health and Human Services' Guide for the Care and Use of Laboratory Animals.\nThe toxicology study was done in SD (Sprague Dawley) rats that were exposed to PCCR-1 aerosol for 60 min daily at 3.4, 10.8 and 32.1 mg/kg/day (delivered dose) for 14 days using a snout only exposure technique via a modular stainless steel flow past inhalation chamber. A 60% w/w blend of PCCR-1 in Lactose LH201 was prepared by adding the appropriate amount of PCCR-1 to the appropriate amount of lactose. The estimated delivered doses were derived based on analytical aerosol concentration, and respiratory minute volume calculated based on body weight, exposure duration, and animal body weight (Supplementary section B)."}, "[2]": {"system": "IL-17A in human whole blood", "assay": "IL-17A inhibition, human whole blood, TCR stimulation", "type": "cell-based", "settings": "TCR stimulatory conditions, n = 10", "method": "For whole blood assay the heparinized whole blood was diluted (1:1) with saline and added in 96-well plate pre-coated with human anti-CD3 mAb (10 µg/mL). Compound treatment was done for 30 min followed by co-stimulation with anti-CD28 mAb (2 µg/mL). After 48 h of incubation supernatant was used for IL-17 estimation by ELISA."}, "[3]": {"system": "Nuclear receptors (RORα, RARα, LXRα, LXRβ, RXR, FXR)", "assay": "Cerep panel, nuclear receptors: binding assays", "set-up": "key: NSE No significant effect; V wk very weak (very low-level agonist activity seen with mPPARγ)", "settings": "at 10 µM", "excerpt": "as §1"}, "mouse RORγ": {"system": "T1, mouse RORγ", "T1 construct": "RORγt-LBD region 264-516aa; made in house", "assay": "Dissociation assay, jump dilution method (TR-FRET), mouse", "type": "binding", "method": "To understand the inverse agonist behavior at the molecular level, interaction with the nuclear receptor RORγ was analyzed in binding assays by estimating its dissociation constant (Koff) and half-life (t1/2). The binding of a ligand stabilizes the conformation of the LBD while binding of a cofactor modifies receptor activity. Binding reversibility was evaluated by adding an excess of competing ligand in the FRET assay and evaluating the displacement of the tracer with inhibitor. Binding of the PCCR-1 with the LBD caused reduction in FRET on antibody addition forming a GST (Glutathione S-transferases) tagged RORγ-antibody complex. The dissociation assay was performed using the jump dilution method with PCCR-1 at a concentration showing maximum binding potency or IC90. The dissociation was tested on addition of an excess of a competitive ligand, the tracer."}, "GABA Cl": {"system": "GABA Cl", "assay": "Cerep panel, GABA Cl", "excerpt": "as §1"}, "[4]": {"system": "Cerep Panel of receptors, ion channels and enzymes", "assay": "Cerep panel of receptors (binding/functional assays)", "set-up": "key: NSE No significant effect; V wk very weak (very low-level agonist activity seen with mPPARγ)", "settings": "at 10 µM, except targets listed in the next line", "excerpt": "as §1"}, "[5]": {"system": "Th1 (IL-2 and IFN-γ) and Th2 (IL-4, IL-13 and IL-10) dependent cytokines in hPBMCs", "assay": "Th1 and Th2 cytokine release, human PBMC, TCR activating conditions", "type": "cell-based", "settings": "hPBMC, even at 10 µM", "method": "An increase in the levels of Th17 dependent cytokine in the peripheral blood of COPD patients as compared to the Th1 and Th2 dependent cytokines has been well documented in a subset of COPD patients. A comparative study was performed under TCR activating conditions to evaluate the potencies of PCCR-1 for inhibition across Th1, Th2 and Th17 dependent cytokines using hPBMCs.\nHuman whole blood from healthy subjects were procured from Clinical Research Unit, Sanpada. Clinical Research Center Glenmark (Plot No. D, 508, Turbhe, TTC Industrial Area, MIDC, Sanpada, Navi Mumbai, Maharashtra 400705, India). PBMCs were isolated using heparinized blood with Ficoll Histopaque. Briefly, the cells were seeded in 96-well plate pre-coated with human anti-CD3 mAb (10 µg/mL), post 30 min of compound treatment cells were stimulated with human anti-CD28 mAb (2 µg/mL). After 72 h of culture, the supernatant was collected for Th1/Th2 cytokines; IFN-γ, IL-2, IL-4 and IL-10 and measured by ELISA. For Th17 polarization assay, the following cytokine cocktail was used: IL-1β (10 ng/ml), IL-23(10 ng/ml), IL-6 (50 ng/ml), TGF-β1 (3 ng/ml), IL-2 (20U/ml) and supernatants were used for measuring IL-17 and IL-22 by ELISA."}, "[6]": {"settings": "Females (n = 5/group), 32.1 mg/kg/day"}, "[7]": {"settings": "Males (n = 5/group), 32.1 mg/kg/day"}},
  "note": "Marks after values point to notes of the source that are not given here.",
  "data": [
    {"smiles": "CCn1c(C(C)(C)Oc2ccc(F)cc2F)nc2cc(NC(=O)Cc3ccc(S(=O)(=O)CC)cc3)ccc21", "note": "[PCCR-1]", "values": [
      {"measurement": "IC50", "setting": "Ca Channel (L type)", "result": 2.6, "unit": "µM"},
      {"measurement": "Microscopic changes: Hypertrophy; zona fasciculata, diffuse (animals affected)", "setting": "[1]; [6]", "result": 3},
      {"measurement": "Microscopic changes: hypertrophy, Mild (animals affected)", "setting": "[1]; [6]", "result": 2},
      {"measurement": "Microscopic changes: hypertrophy, Minimal (animals affected)", "setting": "[1]; [6]", "result": 1},
      {"measurement": "adrenal gland Absolute weight (mean ± SD)", "setting": "[1]; Females, 32.1 mg/kg/day", "result": "0.0950 ± 0.0139", "unit": "g"},
      {"measurement": "adrenal gland weight Relative to body weight (mean ± SD)", "setting": "[1]; Females, 32.1 mg/kg/day", "result": "0.03168 ± 0.00549", "unit": "%"},
      {"measurement": "adrenal gland weight Relative to brain weight (mean ± SD)", "setting": "[1]; Females, 32.1 mg/kg/day", "result": "4.657 ± 0.6176", "unit": "%"},
      {"measurement": "Reticulocyte count (mean ± SD)", "setting": "[1]; Females, 32.1 mg/kg/day, P ≤ 0.01", "result": "295.4 ± 40.3* 10^9/L"},
      {"measurement": "Microscopic changes: Hypertrophy; zona fasciculata, diffuse (animals affected)", "setting": "[1]; [7]", "result": 0},
      {"measurement": "Microscopic changes: hypertrophy, Mild (animals affected)", "setting": "[1]; [7]", "result": 0},
      {"measurement": "Microscopic changes: hypertrophy, Minimal (animals affected)", "setting": "[1]; [7]", "result": 0},
      {"measurement": "Reticulocyte count (mean ± SD)", "setting": "[1]; Males, 32.1 mg/kg/day", "result": "287.7 ± 62.6 10^9/L"},
      {"measurement": "adrenal gland Absolute weight (mean ± SD)", "setting": "[1]; Males, 32.1 mg/kg/day", "result": "0.0581 ± 0.0083", "unit": "g"},
      {"measurement": "adrenal gland weight Relative to body weight (mean ± SD)", "setting": "[1]; Males, 32.1 mg/kg/day", "result": "0.01553 ± 0.00171", "unit": "%"},
      {"measurement": "adrenal gland weight Relative to brain weight (mean ± SD)", "setting": "[1]; Males, 32.1 mg/kg/day", "result": "2.803 ± 0.3041", "unit": "%"},
      {"measurement": "MTD at 14 days", "setting": "[1]; Sprague Dawley, in vivo, inhaled or intranasal, rat, 14-day inhalation, read-out: maximum tolerated dose", "result": 32.1, "unit": "mg/kg/day"},
      {"measurement": "Microscopic changes: hypertrophy, Minimal (animals affected)", "setting": "[1]; female, Sprague-Dawley, rat, in vivo, 14 days", "result": 0},
      {"measurement": "histopathological change of the adrenal gland", "setting": "[1]; rat, in vivo", "result": "bilateral diffuse hypertrophy of the zona fasciculata"},
      {"measurement": "reticulocyte count compared with the control group", "setting": "[1]; rat, in vivo", "result": 1.09, "unit": "fold"},
      {"measurement": "IC50", "setting": "[2]", "result": 3.05, "unit": "µM"},
      {"measurement": "Nuclear receptors: binding assays (RORα, RARα, LXRα, LXRβ, RXR, FXR)", "setting": "[3]", "result": "NSE at 10 µM"},
      {"measurement": "dissociation from the target protein", "setting": "mouse RORγ; mouse RORγ, jump dilution", "result": "20–25%"},
      {"measurement": "t1/2 (target residence time)", "setting": "mouse RORγ; mouse RORγ, jump dilution, PCCR-1 at IC90", "result": 4.69, "unit": "h"},
      {"measurement": "absolute dissociation", "setting": "mouse RORγ; mouse, till 3 h of measurement", "result": 50, "unit": "%"},
      {"measurement": "IC50", "setting": "GABA Cl", "result": 4.8, "unit": "µM"},
      {"measurement": "Cerep Panel of receptors (binding/functional assays)", "setting": "[4]", "result": "NSE at 10 µM except#"},
      {"measurement": "inhibition of Th1 (IL-2 and IFN-γ) and Th2 (IL-4, IL-13 and IL-10) dependent cytokines", "setting": "[5]", "result": "did not show significant inhibition"}
    ]}
  ]
}
